{"source": "PubChem BioAssay (NCI)", "test_in_all_cases": "NCI tumour cell line growth inhibition, 48 h", "key": {"DMS 114 small cell lung": {"test_system": "DMS 114 small cell lung"}, "DMS 273 small cell lung": {"test_system": "DMS 273 small cell lung"}, "HOP-18 NSCLC": {"test_system": "HOP-18 NSCLC"}, "KM20L2 colon": {"test_system": "KM20L2 colon"}, "LXFL 529 NSCLC": {"test_system": "LXFL 529 NSCLC"}, "M19-MEL melanoma": {"test_system": "M19-MEL melanoma"}, "XF 498 CNS": {"test_system": "XF 498 CNS"}, "RXF-631 renal": {"test_system": "RXF-631 renal"}, "P388 leukemia": {"test_system": "P388 leukemia"}, "P388/ADR leukemia": {"test_system": "P388/ADR leukemia"}, "SN12K1 renal": {"test_system": "SN12K1 renal"}}, "note": "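Cultured in 96-well plates, cells were exposed to test compound for 48 hours across five concentrations. GI50 is the concentration that inhibits growth by half. TGI: total growth inhibition.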", "data": [{"smiles": "O=C1NC(=S)NC(=O)C1=Cc1ccc2ccccc2n1", "values": [{"measurement": "TGI", "setting": "DMS 114 small cell lung", "value": "> 100", "unit": "µM"}, {"measurement": "TGI", "setting": "DMS 273 small cell lung", "value": "> 100", "unit": "µM"}, {"measurement": "TGI", "setting": "HOP-18 NSCLC", "value": "> 100", "unit": "µM"}, {"measurement": "TGI", "setting": "KM20L2 colon", "value": "> 100", "unit": "µM"}, {"measurement": "TGI", "setting": "LXFL 529 NSCLC", "value": "> 100", "unit": "µM"}, {"measurement": "TGI", "setting": "M19-MEL melanoma", "value": "> 100", "unit": "µM"}]}, {"smiles": "COc1ccc(N2C(=O)C3c4[nH]c5ccccc5c4C4CCC(C(C)(C)C)CC4C3C2=O)cc1OC", "note": "(centres undefined)", "values": [{"measurement": "TGI", "setting": "DMS 273 small cell lung", "value": 31.2, "unit": "µM"}, {"measurement": "TGI", "setting": "HOP-18 NSCLC", "value": 40.8, "unit": "µM"}, {"measurement": "TGI", "setting": "KM20L2 colon", "value": "> 100", "unit": "µM"}, {"measurement": "TGI", "setting": "LXFL 529 NSCLC", "value": 32.5, "unit": "µM"}, {"measurement": "TGI", "setting": "M19-MEL melanoma", "value": "> 100", "unit": "µM"}, {"measurement": "TGI", "setting": "XF 498 CNS", "value": 34.7, "unit": "µM"}]}, {"smiles": "CC(C)(Oc1ccc(C(=O)c2ccc(Cl)cc2)cc1Cl)C(=O)N1CCN(c2ccccc2)CC1", "values": [{"measurement": "TGI", "setting": "DMS 114 small cell lung", "value": "> 100", "unit": "µM"}, {"measurement": "TGI", "setting": "DMS 273 small cell lung", "value": "> 100", "unit": "µM"}, {"measurement": "TGI", "setting": "HOP-18 NSCLC", "value": "> 100", "unit": "µM"}, {"measurement": "TGI", "setting": "KM20L2 colon", "value": "> 100", "unit": "µM"}, {"measurement": "TGI", "setting": "LXFL 529 NSCLC", "value": "> 100", "unit": "µM"}, {"measurement": "TGI", "setting": "M19-MEL melanoma", "value": "> 100", "unit": "µM"}, {"measurement": "TGI", "setting": "XF 498 CNS", "value": "> 100", "unit": "µM"}]}, {"smiles": "COc1cc(C(CC(OC)OC)=C(C#N)C#N)cc(OC)c1OC", "values": [{"measurement": "TGI", "setting": "DMS 114 small cell lung", "value": 87.6, "unit": "µM"}, {"measurement": "TGI", "setting": "DMS 273 small cell lung", "value": 27.6, "unit": "µM"}, {"measurement": "TGI", "setting": "KM20L2 colon", "value": 69.4, "unit": "µM"}, {"measurement": "TGI", "setting": "LXFL 529 NSCLC", "value": "> 100", "unit": "µM"}, {"measurement": "TGI", "setting": "M19-MEL melanoma", "value": 33.4, "unit": "µM"}]}, {"smiles": "COc1c(Cl)c(Cl)c(OC)c2c1C(=O)C=CC2=O", "values": [{"measurement": "TGI", "setting": "DMS 114 small cell lung", "value": 29.7, "unit": "µM"}, {"measurement": "TGI", "setting": "DMS 273 small cell lung", "value": 31.5, "unit": "µM"}, {"measurement": "TGI", "setting": "HOP-18 NSCLC", "value": "> 100", "unit": "µM"}, {"measurement": "TGI", "setting": "KM20L2 colon", "value": "> 100", "unit": "µM"}, {"measurement": "TGI", "setting": "LXFL 529 NSCLC", "value": 29.3, "unit": "µM"}, {"measurement": "TGI", "setting": "M19-MEL melanoma", "value": 32.3, "unit": "µM"}, {"measurement": "TGI", "setting": "XF 498 CNS", "value": 31, "unit": "µM"}]}, {"smiles": "Cc1oc2c(C)c3oc(=O)cc(C)c3cc2c1CN", "values": [{"measurement": "TGI", "setting": "DMS 114 small cell lung", "value": "> 100", "unit": "µM"}, {"measurement": "TGI", "setting": "HOP-18 NSCLC", "value": "> 100", "unit": "µM"}, {"measurement": "TGI", "setting": "KM20L2 colon", "value": "> 100", "unit": "µM"}, {"measurement": "TGI", "setting": "LXFL 529 NSCLC", "value": "> 100", "unit": "µM"}, {"measurement": "TGI", "setting": "M19-MEL melanoma", "value": "> 100", "unit": "µM"}, {"measurement": "TGI", "setting": "RXF-631 renal", "value": 90.4, "unit": "µM"}, {"measurement": "TGI", "setting": "XF 498 CNS", "value": 73.8, "unit": "µM"}]}, {"smiles": "CCOC(=O)CN(Cc1ccccc1)Cc1c(C(=O)c2ccccc2)c2ccccc2n1C(=O)c1ccccc1", "values": [{"measurement": "TGI", "setting": "DMS 114 small cell lung", "value": "> 100", "unit": "µM"}, {"measurement": "TGI", "setting": "DMS 273 small cell lung", "value": "> 100", "unit": "µM"}, {"measurement": "TGI", "setting": "KM20L2 colon", "value": "> 100", "unit": "µM"}, {"measurement": "TGI", "setting": "LXFL 529 NSCLC", "value": "> 100", "unit": "µM"}, {"measurement": "TGI", "setting": "M19-MEL melanoma", "value": "> 100", "unit": "µM"}, {"measurement": "TGI", "setting": "XF 498 CNS", "value": "> 100", "unit": "µM"}]}, {"smiles": "CCCN(CCC)c1c([N+](=O)[O-])cc(C(=O)N(C)C)cc1[N+](=O)[O-]", "values": [{"measurement": "TGI", "setting": "DMS 114 small cell lung", "value": "> 100", "unit": "µM"}, {"measurement": "TGI", "setting": "DMS 273 small cell lung", "value": "> 100", "unit": "µM"}, {"measurement": "TGI", "setting": "LXFL 529 NSCLC", "value": "> 100", "unit": "µM"}, {"measurement": "TGI", "setting": "M19-MEL melanoma", "value": "> 100", "unit": "µM"}, {"measurement": "TGI", "setting": "XF 498 CNS", "value": "> 100", "unit": "µM"}]}, {"smiles": "C/C(=C/c1c(C)[nH]c(=O)[nH]c1=O)C(=O)O", "values": [{"measurement": "TGI", "setting": "DMS 114 small cell lung", "value": "> 1380", "unit": "µM"}, {"measurement": "TGI", "setting": "DMS 273 small cell lung", "value": "> 1380", "unit": "µM"}, {"measurement": "TGI", "setting": "HOP-18 NSCLC", "value": "> 1380", "unit": "µM"}, {"measurement": "TGI", "setting": "KM20L2 colon", "value": "> 1370", "unit": "µM"}, {"measurement": "TGI", "setting": "M19-MEL melanoma", "value": "> 1380", "unit": "µM"}, {"measurement": "GI50", "setting": "P388 leukemia", "value": "> 1370", "unit": "µM"}, {"measurement": "TGI", "setting": "P388 leukemia", "value": "> 1370", "unit": "µM"}, {"measurement": "TGI", "setting": "P388/ADR leukemia", "value": 1370, "unit": "µM"}, {"measurement": "TGI", "setting": "SN12K1 renal", "value": "> 1380", "unit": "µM"}, {"measurement": "TGI", "setting": "XF 498 CNS", "value": "> 1370", "unit": "µM"}]}, {"smiles": "CC1(CO)C(=O)OC12CCCCC2", "note": "(centres undefined)", "values": [{"measurement": "TGI", "setting": "DMS 114 small cell lung", "value": "> 100", "unit": "µM"}, {"measurement": "TGI", "setting": "DMS 273 small cell lung", "value": "> 100", "unit": "µM"}, {"measurement": "TGI", "setting": "LXFL 529 NSCLC", "value": "> 100", "unit": "µM"}, {"measurement": "TGI", "setting": "M19-MEL melanoma", "value": "> 100", "unit": "µM"}, {"measurement": "TGI", "setting": "RXF-631 renal", "value": "> 100", "unit": "µM"}, {"measurement": "TGI", "setting": "XF 498 CNS", "value": "> 100", "unit": "µM"}]}, {"smiles": "Cc1ccc(Nc2ccc(Nc3ccc(C)cc3S(=O)(=O)O)c3c2C(=O)c2ccccc2C3=O)c(S(=O)(=O)O)c1", "values": [{"measurement": "TGI", "setting": "DMS 114 small cell lung", "value": "> 100", "unit": "µM"}, {"measurement": "TGI", "setting": "DMS 273 small cell lung", "value": "> 100", "unit": "µM"}, {"measurement": "TGI", "setting": "HOP-18 NSCLC", "value": "> 100", "unit": "µM"}, {"measurement": "TGI", "setting": "KM20L2 colon", "value": "> 100", "unit": "µM"}, {"measurement": "TGI", "setting": "LXFL 529 NSCLC", "value": "> 100", "unit": "µM"}, {"measurement": "TGI", "setting": "RXF-631 renal", "value": "> 100", "unit": "µM"}]}, {"smiles": "NC(CNc1ccc(O)cc1)C(=O)O", "note": "(centres undefined)", "values": [{"measurement": "TGI", "setting": "DMS 114 small cell lung", "value": "> 100", "unit": "µM"}, {"measurement": "TGI", "setting": "DMS 273 small cell lung", "value": "> 100", "unit": "µM"}, {"measurement": "TGI", "setting": "HOP-18 NSCLC", "value": "> 100", "unit": "µM"}, {"measurement": "TGI", "setting": "KM20L2 colon", "value": "> 100", "unit": "µM"}, {"measurement": "TGI", "setting": "LXFL 529 NSCLC", "value": "> 100", "unit": "µM"}, {"measurement": "TGI", "setting": "M19-MEL melanoma", "value": 86.3, "unit": "µM"}, {"measurement": "TGI", "setting": "RXF-631 renal", "value": "> 100", "unit": "µM"}, {"measurement": "TGI", "setting": "XF 498 CNS", "value": 29.1, "unit": "µM"}]}]}
